Results on 10 compounds are retold here after patent publication US10730870B2, “Compounds and methods for the enhanced degradation of targeted proteins” (Arvinas, Inc., priority 2015, dated 2020).

The target in this assay is VHL (Homo sapiens (Human), UniProt P40337). Description: VHL fluorescence polarization (FP) competition assay. The format is binding.

Consider `Cc1ncsc1-c1ccc(CNC(=O)[C@@H]2C[C@@](O)(CO)CN2C(=O)[C@H](C(C)C)N2Cc3ccccc3C2=O)cc1` [Example 144, (2S,4S)-4-hydroxy-4-(hydroxymethyl)-1-((S)-3-methyl-2-(1-oxoisoindolin-2-yl)butanoyl)-N-(4-(4-methylthiazol-5-yl)benzyl)pyrrolidine-2-carboxamide], for which the “VHL FP Assay IC50” value (1% in DMSO) was “Not active”.

As usually defined, the IC50 is the concentration that inhibits the measured activity by half. Lower therefore signals greater potency in that assay. With `Cc1ncsc1-c1ccc(CNC(=O)[C@@H]2C[C@@H](O)CN2C(=O)[C@H](CS)NC(=O)CCC(C)C)cc1` [Example 59, (2S,4R)-4-hydroxy-1-((R)-3-mercapto-2-(4-methylpentanamido)propanoyl)-N-(4-(4-methylthiazol-5-yl)benzyl)pyrrolidine-2-carboxamide], the IC50 was found to be 1420 nM (1% in DMSO) and 3690 nM (10% in DMSO).

As for `Cc1ncsc1-c1ccc(CNC(=O)[C@@H]2C[C@@H](O)CN2C(=O)[C@H](C(C)C)N2CCCC2=O)cc1` [Example 98, (2S,4R)-4-hydroxy-1-((S)-3-methyl-2-(2-oxopyrrolidin-1-yl)butanoyl)-N-(4-(4-methylthiazol-5-yl)benzyl)pyrrolidine-2-carboxamide], the IC50 (1% in DMSO) amounted to 4150 nM.

On to `Cc1ncsc1-c1ccc(CNC(=O)[C@@H]2C[C@@H](O)CN2C(=O)[C@H](C(C)C)N2Cc3cc(F)ccc3C2=O)cc1` [Example 16, (2S,4R)-1-((S)-2-(5-fluoro-1-oxoisoindolin-2-yl)-3-methylbutanoyl)-4-hydroxy-N-(4-(4-methylthiazol-5-yl)benzyl)pyrrolidine-2-carboxamide], for which the IC50 is, setting by setting: (0.25% in DMSO) 2950 nM; (1% in DMSO) 265 nM; (10% in DMSO) 1800 nM.

With `Cc1ncsc1-c1ccc(CNC(=O)[C@@H]2C[C@@H](O)CN2C(=O)[C@@H](NC(=O)C(C)C)C(C)(C)C)cc1` [Example 27, (2S,4R)-4-hydroxy-1-((S)-2-isobutyramido-3,3-dimethylbutanoyl)-N-(4-(4-methylthiazol-5-yl)benzyl)pyrrolidine-2-carboxamide], the 50% inhibitory concentration (IC50) is roughly 1570 nM (0.25% in DMSO), 3040 nM (1% in DMSO) and 8310 nM (10% in DMSO).

In the case of `Cc1ncsc1-c1ccc(CNC(=O)[C@@H]2C[C@@H](O)CN2C(=O)[C@H](C(C)C)N2Cc3c(Br)cccc3C2=O)cc1` [Example 26, (2S,4R)-1-((S)-2-(4-bromo-1-oxoisoindolin-2-yl)-3-methylbutanoyl)-4-hydroxy-N-(4-(4-methylthiazol-5-yl)benzyl)pyrrolidine-2-carboxamide], the IC50 runs as follows: (0.25% in DMSO) 2940 nM; (1% in DMSO) 941 nM; (10% in DMSO) 441 nM.

`CC(C)[C@@H](C(=O)N1C[C@H](O)C[C@H]1C(=O)NCc1ccc(-c2scnc2C(F)(F)F)cc1)N1Cc2ccccc2C1=O` [Example 102, (2S,4R)-4-hydroxy-1-((S)-3-methyl-2-(1-oxoisoindolin-2-yl)butanoyl)-N-(4-(4-(trifluoromethyl)thiazol-5-yl)benzyl)pyrrolidine-2-carboxamide] yielded a 50% inhibitory concentration (IC50) (1% in DMSO) of 7750 nM.

`Cc1ncsc1-c1ccc(CNC(=O)[C@@H]2C[C@@H](O)CN2C(=O)[C@H](C(C)C)N2Cc3ccccc3C2=O)c(F)c1` [Example 82, (2S,4R)—N-(2-fluoro-4-(4-methylthiazol-5-yl)benzyl)-4-hydroxy-1-((S)-3-methyl-2-(1-oxoisoindolin-2-yl)butanoyl)pyrrolidine-2-carboxamide] registered a half-inhibitory concentration (IC50) (1% in DMSO) of 1640 nM and an IC50 (10% in DMSO) of 1580 nM.

Consider `Cc1ncsc1-c1ccc(CNC(=O)[C@@H]2C[C@@H](O)CN2C(=O)[C@H](C(C)C)N2Cc3ccc(F)cc3C2=O)cc1` [Example 9], for which the half-maximal inhibitory concentration (IC50) is, setting by setting: (0.25% in DMSO) 1280 nM; (1% in DMSO) 309 nM; (10% in DMSO) 498 nM.

On to `CC(=O)NCC(=O)N1C[C@H](O)C[C@H]1C(=O)NCc1ccc(-c2scnc2C)cc1` [Example 86, (2S,4R)-1-(2-acetamidoacetyl)-4-hydroxy-N-(4-(4-methylthiazol-5-yl)benzyl)pyrrolidine-2-carboxamide], for which the IC50 (1% in DMSO) is 151000 nM and the concentration for half-maximal inhibition (IC50) (10% in DMSO) worked out at 225000 nM.
